Common to all, as to assay: DTP human tumour cell line panel, 48 h
For experiment [1], the system named is 786-0.
Experiment [2] deals with BT-549.
In experiment [3] the test system is CCRF-CEM.
Experiment [4] relates to HCT-116.
Experiment [5] relates to HL-60.
In experiment [6] the test system is HOP-62.
Experiment [7] relates to Hs-578T.
Experiment [8] deals with IGROV-1.
Experiment [9] concerns K562.
The subject of experiment [10] is Malme-3M.
Experiment [11] deals with NCI-H23.
The test system of experiment [12] is NCI/ADR-RES.
The test system of experiment [13] is OVCAR-3.
In experiment [14] the test system is OVCAR-5.
For experiment [15], the system named is PC-3.
Experiment [16] relates to RXF 393.
In experiment [17] the test system is SK-MEL-28.
Experiment [18] has as its system SN12C.
In experiment [19] the test system is SR.
For experiment [20], the system named is NCI-H460.

These results are taken from ChEMBL document CHEMBL1201862, “PubChem BioAssay data set” (2004).

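A five-concentration, 48-hour dose response in 96-well plates underlies each endpoint, interpolated linearly between surrounding concentrations. At the GI50, growth is halved.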 Calls of active or inactive are those of the source. Rule as the data show it: active = GI50 up to about 1.1 µM and inactive = higher. A value given as a limit tells only on which side of the number the result lay.

Consider `CN(C)Cc1cc(C(=O)/C=C/c2ccc(/C=C/C(=O)c3cc(CN(C)C)c(O)c(CN(C)C)c3)cc2)cc(CN(C)C)c1O`, for which the GI50 in experiment [1] is 19.6 µM (inactive); in [2] it was 18.6 µM (inactive); in [3], 9.57 µM (inactive); in experiment [4] it was 15.2 µM (inactive); in [5], 14.1 µM (inactive); in experiment [6] it was 26.8 µM (inactive). Also, the GI50 in experiment [7] is 58.2 µM (inactive); in [8], 35.2 µM (inactive); in experiment [9] it was 25.3 µM (inactive); in experiment [10], 34.6 µM (inactive); in experiment [11] it was 18.7 µM (inactive); in experiment [12], > 100 µM (inactive). The GI50 is 32.1 µM (inactive) in experiment [13]; 17.4 µM (inactive) in experiment [14]; 15.1 µM (inactive) in experiment [15]; 26.7 µM (inactive) in experiment [16]; 29 µM (inactive) in experiment [17]; 28.9 µM (inactive) in [18]. In addition, the GI50 in [19] is 22.8 µM (inactive).

For the compound `NS(=O)(=O)c1ccc(NC(=O)c2cc([N+](=O)[O-])cc([N+](=O)[O-])c2)cc1`, the GI50 was 76.2 µM (inactive) in experiment [1]; > 100 µM (inactive) in [2]; 28.8 µM (inactive) in experiment [3]; 45 µM (inactive) in [4]; 32.1 µM (inactive) in experiment [5]; > 100 µM (inactive) in experiment [6]. Also, the GI50 was 76.4 µM (inactive) in experiment [7]; 23.6 µM (inactive) in experiment [8]; 43.7 µM (inactive) in [9]; 24.8 µM (inactive) in experiment [10]; 41.4 µM (inactive) in experiment [11]; 31.8 µM (inactive) in experiment [20]. For the same compound, the GI50 in experiment [12] is > 100 µM (inactive); in experiment [13] it was 25.8 µM (inactive); in experiment [15], 21.1 µM (inactive); in experiment [16], > 100 µM (inactive); in [17], > 100 µM (inactive); in experiment [18], 21.7 µM (inactive). Further, the GI50 in experiment [19] is 63.1 µM (inactive).

As to `CC(=O)OCC1OC(O[C@@H]2c3c(O)c4c(c(O)c3C3=C(NN(c5ccc([N+](=O)[O-])cc5[N+](=O)[O-])[Se]3=O)[C@@]2(C)O)C(=O)c2ccccc2C4=O)C(OC(C)=O)C(OC(C)=O)C1OC(C)=O` (stereo partly specified), the 50% growth inhibitory concentration (GI50) was 0.147 µM (active) in experiment [1]; 0.489 µM (active) in [2]; 0.0352 µM (active) in experiment [3]; 0.141 µM (active) in experiment [4]; 0.189 µM (active) in [6]; 0.303 µM (active) in experiment [7]. The GI50 in [8] was 0.303 µM (active); in [9], 0.118 µM (active); in experiment [10] it was 0.157 µM (active); in [11] it was 0.251 µM (active); in experiment [20], 0.192 µM (active); in experiment [12], 0.336 µM (active). Also, the concentration for 50% growth inhibition (GI50) was 0.158 µM (active) in [13]; 0.51 µM (active) in experiment [14]; 0.261 µM (active) in [15]; 0.31 µM (active) in [16]; 0.242 µM (active) in [17]; 0.157 µM (active) in [18]. The concentration for 50% growth inhibition (GI50) in [19] is 0.179 µM (active).

On to `CC(=O)c1nc2ccccc2n1CC(=O)c1ccc(Cl)cc1`, for which the GI50 in experiment [1] was 3.13 µM (inactive); in experiment [2], 3.55 µM (inactive); in [3], 4.09 µM (inactive); in experiment [4], 2.01 µM (inactive); in experiment [5], 1.79 µM (inactive); in experiment [6], 5.85 µM (inactive). Moreover, the GI50 in experiment [7] was 17.2 µM (inactive); in experiment [8], 1.39 µM (inactive); in experiment [9], 1.52 µM (inactive); in experiment [10] it was 3.19 µM (inactive); in [11] it was 7.64 µM (inactive); in experiment [20] it was 2.45 µM (inactive). In addition, the GI50 in [12] is 2.94 µM (inactive); in [13], 4.37 µM (inactive); in experiment [15], 5.45 µM (inactive); in experiment [16], 17.6 µM (inactive); in experiment [17] it was 8.83 µM (inactive); in experiment [18], 5.69 µM (inactive). Further, the GI50 in [19] was 4.84 µM (inactive).
